{"source": "patent US3997530A", "about": "“Substituted enaminoketones” (American Cyanamid Company, priority 1976, dated 1976)", "key": {"[1]": {"assay": "\"writhing syndrome\" test for analgesic activity (phenyl-p-quinone)", "assay_type": "in vivo, male Swiss albino mice", "details": "100 mg./kg. oral, 30 minutes before phenyl-p-quinone; 3 minute count commencing 15 minutes after; control approximately 30 per pair; active if 18 or less", "from_the_text": "The substituted enaminoketones of the present invention are active analgesics when measured by the \"writhing syndrome\" test for analgesic activity as described by Siegmund, et al., Proc. Soc. Exp. Bio. and Med., 95, 729 (1957), with modifications. This method is based upon the reduction of the number of writhes following the intraperitoneal injection of one mg./kg. of body weight of phenyl-p-quinone in male Swiss albino mice weighing 18-25 gm. The syndrome is characterized by intermittent contractions of the abdomen, twisting and turning of the trunk, and extension of the hind legs beginning 3 to 5 minutes after injection of the phenyl-p-quinone. The test compounds are administered orally at the indicated dose to groups of 2 mice each, 30 minutes before injection of the phenyl-p-quinone. […] A compound is considered active if it reduces the total number of writhes in 2 test mice from a control value of approximately 30 pair to a value of 18 or less. Table I summarized the results of this test on representative compounds of this invention."}, "[2]": {"assay": "Water solubility of salts", "assay_type": "physicochemical"}, "[3]": {"assay": "Walking gait test in rats with yeast-inflamed paw (modified Atkinson and Cowan)", "assay_type": "in vivo, male, albino Wistar strain rats", "details": "oral by gavage, dose producing 50% reversal of the pre-dose gait score, one and/or two hours post-drug", "protocol": "Atkinson and A. Cowan, J. Pharm. Pharmac, 26, 727 (1974).\nIn this test male, albino Wistar strain rats from Royalhart farms, weighing 120-150 g. are deprived of food for about 20 hours. A 40% suspension of brewers' yeast in physiological saline is injected, at a concentration of 0.25 ml/rat into the plantar surface of the left hind paw of each rat. 3 hours later, at which time an inflammation of the injected paw has developed, a pre-drug assessment of walking gait is made for each rat according to the following scoring system:\n0 = Normal gait in the presence of a severely inflammed paw. There is continuous use of the foot pad.\n0.5 = As above with intermittent mild limping.\n1.0 = Constant limping, but continuous use of the foot pad.\n1.5 = Limping with occasional three-legged gait (paw kept off walking surface) or intermittent use of digits in combination with foot pad.\n2.0 = Continuous three-legged gait and/or only the tips of the digits touch the walking surface. There is no use of foot pad.\nCompounds, in a suitable vehicle, are administered orally by gavage in a volume of 0.5 ml./100 g. of body weight. One and/or two hours later a post-drug assessment of walking gait is made as described above. The criterion of an analgesic response for each rat is a 50% reversal of the abnormal gait score (post-drug) from the pre-drug score. […]"}, "[4]": {"assay": "Antipyretic activity, brewers' yeast-induced hyperthermia (modified Teotino et al.)", "assay_type": "in vivo, rats", "protocol": "The compounds of this invention also show antipyretic activity by their ability to reduce a hyperthermic response in warm-blooded animals, e.g., rats, induced by the subcutaneous injection of a suspension of brewers' yeast. This is a modification of the method described by Teotino, et al., J. Med. Chem. 6, 248 (1963). A 40% suspension of brewer's yeast in distilled water is administered to groups of five to ten rats subcutaneously (1.0 ml./100 g. of body weight). Eighteen hours later, rectal temperatures are recorded and compounds, control vehicle (2% starch suspension) or aspirin is administered. Rectal temperatures are recorded 4 hours later and the results are compared with the starch treated controls and with aspirin, a reference antipyretic agent."}, "[5]": {"assay": "Brewer's Yeast Pressure Pain Test (modified Randall and Selitto)", "assay_type": "in vivo, rats", "protocol": "To determine analgesic activity, a modification of the method of Randall and Selitto [Arch. int. Pharmacodyn., 111, 409 (1957)] is used. This test measures the pain threshold of rats whose paws are made sensitive to pressure by the injection of a 20% aqueous suspension (0.1 ml.) of brewers' yeast into the plantar surface of the left hind paw. Constantly increasing force (16 grams/second) is applied to the swollen paw using an Analgesy Meter, Ugo Basile. The pressure is cut off at 250 grams of force when there is no response (sudden struggle or vocalization). Control rats treated with the starch vehicle response to a pressure or force of about 30 grams. Pressure-pain thresholds are always recorded 2 hours after brewers' yeast. Analgesic agents are administered at the same time as the yeast, at a dose of 200 mg./kg. orally. Ratios of treated (T)/control (C) reaction thresholds are calculated as estimates of analgesic efficacy (degree of analgesia attainable). Potency is regarded as the dose necessary to produce a given level of analgesia (i.e. 100% elevation of pain threshold is T/C=2.0)."}}, "note": "Several values for one entry are separate records, joined by “and”; a condition that tells them apart may be missing. Equal entries are not always repeated."}
{"compound": "NC(=CC(=O)c1cnccn1)C1CC1", "note": "[1-amino-1-cyclopropyl-3-(2-pyrazinyl)-1-propen-3-one]", "values": [{"measurement": "No. of writhes per pair", "setting": "[1]", "value": 3.8}]}
{"compound": "c1cncc(-c2cc(C3CC3)no2)c1", "note": "[3-(3-cyclopropyl-5-isoxazolyl)pyridine]", "values": [{"measurement": "water solubility", "setting": "[2]; sulfate salt", "value": "water soluble"}]}
{"compound": "c1cncc(-c2cc(C3CC3)on2)c1", "note": "[3-(5-cyclopropyl-3-isoxazolyl)pyridine]", "values": [{"measurement": "solubility", "setting": "[2]; acetate salt", "value": "slightly soluble"}]}
{"compound": "NC(=CC(=O)c1cccnc1)C1CC1", "note": "[3-amino-3-cyclopropyl-1-(3-pyridyl)-2-propen-1-one]", "values": [{"measurement": "ED50", "setting": "[3]; Rattus norvegicus, po, 2 h, read-out: ED50", "value": 27, "unit": "mg/kg"}, {"measurement": "ED50", "setting": "[3]", "value": "40 mg/kg and 26 mg/kg"}]}
{"compound": "NC(=CC(=O)c1ccncc1)C1CC1", "note": "[3-amino-3-cyclopropyl-1-(4-pyridyl)-2-propen-1-one]", "values": [{"measurement": "No. of writhes per pair", "setting": "[1]", "value": 9.4}, {"measurement": "effect on body temperature of normal rats", "setting": "[4]; 200 mg./kg., normal rats", "value": "not effecting the body temperature of normal rats"}, {"measurement": "lowering the yeast-elevated body temperature of rats", "setting": "[4]; 200 mg./kg., rectal temperature 4 hours later, yeast-treated rats", "value": "effective in lowering the yeast-elevated body temperature of rats"}, {"measurement": "Ratio (Treated/Control) Measured at 2 Hours Following 200 mg./kg. Oral Dose", "setting": "[5]; 200 mg./kg. orally, 2 hours after brewers' yeast, ratio of reaction thresholds T/C", "value": "1.45 and 1.39"}, {"measurement": "ED50", "setting": "[5]; Rattus norvegicus, 2 h, oral, Brewer's Yeast Pressure Pain Test", "value": 25, "unit": "mg/kg"}]}
{"compound": "c1cc(-c2cc(C3CC3)no2)ccn1", "note": "[4-(3-cyclopropyl-5-isoxazolyl)pyridine]", "values": [{"measurement": "water solubility", "setting": "[2]; phosphate salt", "value": "water soluble"}]}
{"compound": "c1cc(-c2cc(C3CC3)on2)ccn1", "note": "[4-(5-cyclopropyl-3-isoxazolyl)pyridine]", "values": [{"measurement": "water solubility", "setting": "[2]; citrate salt", "value": "slightly water soluble"}]}
{"compound": "CC(=O)Oc1ccccc1C(=O)O", "note": "[Aspirin, reference compound]", "values": [{"measurement": "effect on temperature of normal rats", "setting": "[4]; aspirin reference, dose not given, normal rats", "value": "not effecting the temperature of normal rats"}, {"measurement": "lowering yeast-elevated temperatures", "setting": "[4]; aspirin reference, dose not given, yeast-treated rats", "value": "similarly effective in lowering yeast-elevated temperatures"}]}
